From patent publication US20040156782A1, “Methods of using indocyanine green (ICG) dye” (Akorn, Inc., priority 2003, published 2004)

Assay: HPLC stability of reconstituted aqueous ICG composition (% label claim over time)
Assay type: physicochemical
Description: The HPLC testing utilized a Supelcosil LC-18-DB, 3 μm, 4.6×150 mm HPLC column and a supelcosil LC-18-DB, 3 μm, 4.6×33 mm guard column. The mobile phase, which consists of 0.1% phosphoric acid (Solvent A) and 100% acetonitrile (Solvent B), was fed to the columns at a flow rate of 1 ml/min, with the mobile phase composition being varied as follows:
An ICG standard was then prepared by dissolving approximately 5.5 mg of ICG (IC-GREEN™) in 10.0 ml of a diluent comprising acetonitrile and water in a 1:1 ratio. The ICG samples to be measured (IC-GREEN™) were then prepared by diluting each sample in the same diluent (1:1 acetonitrile to water) such that the estimated concentration of ICG in each sample was approximately 0.5 mg/ml. The dilution factor was determined by dividing the final volume of the sample by the volume of the ICG sample aliquot initially added. Then, five 10.0 μL quantities of the ICG standard were injected into the HPLC column and the mean peak area was determined. Next, a series of 10.0 μL injections of the samples was completed, and the mean peak area for each sample was determined. The ICG concentration for each sample was then calculated using the following formula:
[ICG in mg/ml]=[STD](ASX/ASTD)(DF)
where [STD] is the ICG concentration of the standard, ASX is the mean peak area of the sample, ASTD is the mean peak area of the standard, and DF is the dilution factor. The relative concentration of ICG present in the sample (wt. % label claim) was then determined by dividing the concentration of the sample by the initial concentration upon dissolution, then multiplying the result by one hundred.

CC1(C)C(/C=C/C=C/C=C/C=C2\N(CCCCS(=O)(=O)O)c3ccc4ccccc4c3C2(C)C)=[N+](CCCCS(=O)(=O)[O-])c2ccc3ccccc3c21 [ICG, Indocyanine green]
stability of aqueous compositions having relatively high ICG concentrations relative to relatively low ICG concentrations: more stable | time after reconstitution at which ICG content corresponds to 95 wt. % based on the label claim (5 mg/ml reconstituted aqueous ICG composition): about 18 hours | relative concentration (% label claim) of ICG in aqueous ICG composition (for more than ten hours after the lyophilized ICG is reconstituted): above 90 wt. %
